Data from ChEMBL document CHEMBL3431459, “Roche carnitine palmitoyltransferase modulator screening data (supplementary data associated with the publication CHEMBL2216752)”.
Converted amounts (≈) assume the structure as drawn.

Key:
[1] = target: T1, Carnitine O-palmitoyltransferase 1, liver isoform (Homo sapiens, UniProt P50416); test: (§1) SUPPLEMENTARY: Inhibition of Carnitine palmitoyltransferase 1, liver isoform
T1 sequence (P50416 whole entry): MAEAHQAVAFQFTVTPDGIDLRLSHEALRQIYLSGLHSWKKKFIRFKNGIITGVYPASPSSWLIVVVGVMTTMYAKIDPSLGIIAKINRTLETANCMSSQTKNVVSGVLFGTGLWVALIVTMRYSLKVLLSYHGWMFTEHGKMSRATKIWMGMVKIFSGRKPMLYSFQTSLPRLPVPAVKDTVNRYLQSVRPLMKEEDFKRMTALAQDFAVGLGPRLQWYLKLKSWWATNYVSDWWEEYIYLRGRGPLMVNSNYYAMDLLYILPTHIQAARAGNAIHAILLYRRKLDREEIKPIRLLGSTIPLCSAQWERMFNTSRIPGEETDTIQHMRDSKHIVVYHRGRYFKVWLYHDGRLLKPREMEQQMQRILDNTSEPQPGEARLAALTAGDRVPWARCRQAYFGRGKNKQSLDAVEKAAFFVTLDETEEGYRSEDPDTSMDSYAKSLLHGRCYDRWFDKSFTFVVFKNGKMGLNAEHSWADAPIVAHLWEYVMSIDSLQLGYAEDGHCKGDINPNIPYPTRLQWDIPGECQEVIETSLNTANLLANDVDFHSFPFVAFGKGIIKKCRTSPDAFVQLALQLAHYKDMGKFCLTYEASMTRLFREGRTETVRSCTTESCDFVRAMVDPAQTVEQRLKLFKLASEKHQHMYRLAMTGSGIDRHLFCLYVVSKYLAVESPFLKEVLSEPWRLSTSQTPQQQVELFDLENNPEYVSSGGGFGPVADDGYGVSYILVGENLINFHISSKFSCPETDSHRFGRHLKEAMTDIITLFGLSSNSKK

[2] = target: T2, Carnitine O-palmitoyltransferase 1, liver isoform (Rattus norvegicus, UniProt P32198); test: as §1
T2 sequence (P32198 whole entry): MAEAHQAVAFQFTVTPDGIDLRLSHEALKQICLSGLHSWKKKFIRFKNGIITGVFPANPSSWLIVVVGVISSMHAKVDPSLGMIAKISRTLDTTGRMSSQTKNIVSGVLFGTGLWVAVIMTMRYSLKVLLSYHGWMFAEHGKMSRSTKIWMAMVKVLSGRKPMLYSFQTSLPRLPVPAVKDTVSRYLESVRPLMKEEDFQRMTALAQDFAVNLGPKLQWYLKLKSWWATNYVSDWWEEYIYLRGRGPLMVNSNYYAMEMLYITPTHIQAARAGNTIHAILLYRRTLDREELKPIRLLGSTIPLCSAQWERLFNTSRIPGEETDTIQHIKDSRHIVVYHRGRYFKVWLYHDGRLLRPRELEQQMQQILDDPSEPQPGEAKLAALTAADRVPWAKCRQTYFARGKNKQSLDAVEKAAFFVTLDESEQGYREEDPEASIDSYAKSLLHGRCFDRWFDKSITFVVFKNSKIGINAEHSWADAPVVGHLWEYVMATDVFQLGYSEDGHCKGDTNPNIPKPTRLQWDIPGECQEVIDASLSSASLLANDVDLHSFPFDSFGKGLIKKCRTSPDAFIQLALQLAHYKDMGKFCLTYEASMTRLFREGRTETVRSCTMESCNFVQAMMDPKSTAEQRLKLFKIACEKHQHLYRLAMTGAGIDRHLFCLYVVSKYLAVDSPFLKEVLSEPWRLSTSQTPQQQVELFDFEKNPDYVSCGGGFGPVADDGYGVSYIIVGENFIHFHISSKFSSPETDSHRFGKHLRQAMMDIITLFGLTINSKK

[3] = SUPPLEMENTARY: Lyophilisation Solubility Assay (LYSA); type: physicochemical; conditions: read-out: Kinetic_solubility
[4] = target: T3, Carnitine O-palmitoyltransferase 2, mitochondrial (Homo sapiens, UniProt P23786); test: (§2) SUPPLEMENTARY: Inhibition of Carnitine palmitoyltransferase 2
T3 sequence (P23786 whole entry): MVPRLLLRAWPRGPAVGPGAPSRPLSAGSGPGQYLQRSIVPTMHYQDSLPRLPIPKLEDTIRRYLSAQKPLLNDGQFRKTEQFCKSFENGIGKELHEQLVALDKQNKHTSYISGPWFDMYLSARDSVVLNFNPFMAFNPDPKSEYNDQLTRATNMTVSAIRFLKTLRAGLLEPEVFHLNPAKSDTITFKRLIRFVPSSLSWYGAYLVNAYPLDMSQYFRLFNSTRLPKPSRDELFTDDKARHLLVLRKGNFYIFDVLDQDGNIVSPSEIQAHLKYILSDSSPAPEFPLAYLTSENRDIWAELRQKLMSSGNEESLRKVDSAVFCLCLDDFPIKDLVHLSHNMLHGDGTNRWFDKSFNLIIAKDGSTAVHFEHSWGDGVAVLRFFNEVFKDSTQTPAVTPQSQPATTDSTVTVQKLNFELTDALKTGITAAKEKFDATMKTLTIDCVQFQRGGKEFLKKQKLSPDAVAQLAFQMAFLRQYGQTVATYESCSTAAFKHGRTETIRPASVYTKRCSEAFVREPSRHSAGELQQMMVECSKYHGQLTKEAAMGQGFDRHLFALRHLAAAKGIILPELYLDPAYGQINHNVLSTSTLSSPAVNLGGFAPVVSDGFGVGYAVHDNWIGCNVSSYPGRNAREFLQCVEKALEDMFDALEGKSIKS

[5] = target: T4, Carnitine O-palmitoyltransferase 2, mitochondrial (Rattus norvegicus, UniProt P18886); test: as §2
T4 sequence (P18886 whole entry): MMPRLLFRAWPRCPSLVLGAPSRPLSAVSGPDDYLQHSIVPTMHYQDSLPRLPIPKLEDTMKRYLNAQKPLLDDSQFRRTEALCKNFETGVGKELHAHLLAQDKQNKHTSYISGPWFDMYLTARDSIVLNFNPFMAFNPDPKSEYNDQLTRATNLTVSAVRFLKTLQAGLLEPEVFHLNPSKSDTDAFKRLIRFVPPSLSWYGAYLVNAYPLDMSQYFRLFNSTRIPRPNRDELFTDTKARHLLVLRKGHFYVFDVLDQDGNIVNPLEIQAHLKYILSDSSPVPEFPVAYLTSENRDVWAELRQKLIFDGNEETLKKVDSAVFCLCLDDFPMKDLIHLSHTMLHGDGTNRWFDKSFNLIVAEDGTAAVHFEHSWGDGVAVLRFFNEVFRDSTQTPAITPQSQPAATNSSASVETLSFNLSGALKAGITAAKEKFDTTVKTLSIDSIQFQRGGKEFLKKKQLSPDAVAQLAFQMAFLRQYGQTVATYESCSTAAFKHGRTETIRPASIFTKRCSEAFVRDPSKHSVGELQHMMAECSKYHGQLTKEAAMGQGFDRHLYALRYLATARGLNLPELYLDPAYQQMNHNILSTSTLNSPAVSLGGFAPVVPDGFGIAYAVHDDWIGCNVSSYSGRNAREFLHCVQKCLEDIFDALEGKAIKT

[6] = SUPPLEMENTARY: PAMPA permeability assay; type: physicochemical; conditions: read-out: Permeability
[7] = SUPPLEMENTARY: Lipophilicity (log D) Determination by high-throughput shake-flask; type: physicochemical; conditions: octanol/water
[8] = target: T5, Carnitine O-palmitoyltransferase 1, muscle isoform (Homo sapiens, UniProt Q92523); test: SUPPLEMENTARY: Inhibition of Carnitine palmitoyltransferase 1, muscle isoform; set-up: species or system Muscle tissue
T5 sequence (Q92523 whole entry): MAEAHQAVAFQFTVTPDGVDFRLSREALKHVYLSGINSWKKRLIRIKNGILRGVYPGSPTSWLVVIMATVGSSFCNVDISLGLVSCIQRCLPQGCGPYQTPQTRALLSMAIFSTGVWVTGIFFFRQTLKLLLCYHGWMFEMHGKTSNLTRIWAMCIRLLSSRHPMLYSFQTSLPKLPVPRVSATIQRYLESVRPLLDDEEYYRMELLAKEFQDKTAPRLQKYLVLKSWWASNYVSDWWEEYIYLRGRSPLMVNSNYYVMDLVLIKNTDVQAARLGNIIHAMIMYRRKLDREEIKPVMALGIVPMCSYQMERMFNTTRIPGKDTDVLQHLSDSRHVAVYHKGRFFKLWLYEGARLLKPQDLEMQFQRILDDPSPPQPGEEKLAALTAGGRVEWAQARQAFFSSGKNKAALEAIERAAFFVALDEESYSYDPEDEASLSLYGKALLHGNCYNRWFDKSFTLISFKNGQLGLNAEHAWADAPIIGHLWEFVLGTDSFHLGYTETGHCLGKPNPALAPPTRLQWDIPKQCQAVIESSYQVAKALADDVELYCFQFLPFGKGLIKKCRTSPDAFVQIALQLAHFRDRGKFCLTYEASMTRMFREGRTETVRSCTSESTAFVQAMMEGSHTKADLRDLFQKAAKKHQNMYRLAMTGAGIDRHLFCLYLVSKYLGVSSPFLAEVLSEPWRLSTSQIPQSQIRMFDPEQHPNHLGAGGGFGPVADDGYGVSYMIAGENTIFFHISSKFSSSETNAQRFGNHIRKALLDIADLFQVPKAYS

Row | SMILES | IC50 [1] | IC50 [2] | solubility kinetic [3] | IC50 [4] | IC50 [5] | Papp [6] | logD [7] | IC50 [8]
1 | O=C(O)c1ccc(NC(=O)c2ccc3c(c2)N(S(=O)(=O)c2cccc(Cl)c2)CC[S+]3[O-])cc1 (configuration not stated) | 130 nM | 95.5 nM | 3 µg/mL (≈ 5.94 µM) | > 100000 nM | > 100000 nM | 0.28 ×10⁻⁶ cm/s | -0.14 | 52200 nM
2 | COc1ccc(Cl)cc1S(=O)(=O)N1COc2ccc(C(=O)Nc3ccc(CC(=O)O)cc3)cc21 | 159 nM | 165 nM | 46 µg/mL (≈ 91.5 µM) | > 100000 nM | > 100000 nM | 3.01 ×10⁻⁶ cm/s | 0.28 | 504 nM
3 | COc1ccc(Cl)cc1S(=O)(=O)N1CCOc2c(Cl)cc(C(=O)Nc3ccn(CC(=O)O)n3)cc21 | 218 nM | 144 nM | 558 µg/mL (≈ 1030 µM) | > 100000 nM | > 100000 nM | 0.03 ×10⁻⁶ cm/s | -0.79 | 5650 nM
4 | COc1ccc(Cl)cc1Cc1c[nH]c2ccc(C(=O)Nc3nc(CC(=O)O)cs3)cc12 | 39.3 nM | 59.2 nM | 55 µg/mL (≈ 121 µM) | > 100000 nM | > 100000 nM | 0.49 ×10⁻⁶ cm/s | 1.48 | 1200 nM
5 | COc1ccc(Cl)cc1S(=O)(=O)N1CCCc2ccc(C(=O)Nc3ccc(C(=O)O)c(F)c3)cc21 | 38.1 nM | 47.7 nM | 182 µg/mL (≈ 351 µM) | 2800 nM | 10200 nM | 1.77 ×10⁻⁶ cm/s | 0.55 | 3020 nM
6 | COc1ccc(Cl)cc1S(=O)(=O)N1CCOc2c(F)cc(C(=O)Nc3nc(CC(=O)O)cs3)cc21 | 23.9 nM | 33.8 nM | 10 µg/mL (≈ 18.5 µM) | > 100000 nM | > 100000 nM | 2.43 ×10⁻⁶ cm/s | 0.28 | 741 nM
7 | O=C(O)c1ccc(NC(=O)c2cccc(S(=O)(=O)N3CCCc4ccc(C(F)(F)F)cc43)c2)cc1 | 34.2 nM | 122 nM | 44 µg/mL (≈ 87.2 µM) | 5730 nM | 2920 nM | 3.63 ×10⁻⁶ cm/s | 1.93 | 4930 nM

More lines, now with the values ahead:

Row | IC50 [1] | IC50 [2] | solubility kinetic [3] | IC50 [4] | IC50 [5] | Papp [6] | logD [7] | IC50 [8] | SMILES
8 | 286 nM | 865 nM | 111 µg/mL (≈ 293 µM) | 45300 nM | 66000 nM | 3.97 ×10⁻⁶ cm/s | 1.92 | > 100000 nM | Nc1ccc(-c2n[nH]c([C@H]3CCCCN3C(=O)COc3ccccc3)n2)cn1
9 | 53.7 nM | 340 nM | 136 µg/mL (≈ 324 µM) | 98300 nM | > 100000 nM | 2.88 ×10⁻⁶ cm/s | 2.61 | > 100000 nM | CC(=O)Nc1cccc(-c2n[nH]c([C@H]3CCCCN3C(=O)COc3ccccc3)n2)c1
10 | 270 nM | 237 nM | 4 µg/mL (≈ 8.7 µM) | > 100000 nM | > 100000 nM | 4.38 ×10⁻⁶ cm/s | 3.31 | > 100000 nM | COc1ccc(Cl)cc1S(=O)(=O)N1CCOc2ncc(C(=O)Nc3ccccc3)cc21
11 | 114 nM | 316 nM | 33 µg/mL (≈ 76.5 µM) | 44200 nM | 74700 nM | 2 ×10⁻⁶ cm/s | 2.9 | > 100000 nM | O=C1CCN1c1cccc(-c2n[nH]c([C@H]3CCCCN3C(=O)COc3ccccc3)n2)c1
12 | 79.1 nM | 252 nM | < 1 µg/mL | > 100000 nM | > 100000 nM | 1.68 ×10⁻⁶ cm/s | 3.61 | > 100000 nM | Cc1nn(C)c(-c2noc([C@H]3CCCCN3C(=O)COc3ccccc3)n2)c1Cl
13 | 68.2 nM | 297 nM | 6 µg/mL (≈ 15.1 µM) | 9990 nM | 35700 nM | 5.09 ×10⁻⁶ cm/s | 2.53 | > 100000 nM | O=C(COc1ccccc1)N1CCCC[C@@H]1c1nc(-c2ccc([N+](=O)[O-])o2)no1
14 | 229 nM | 106 nM | 70 µg/mL (≈ 150 µM) | 540 nM | 2010 nM | 8.31 ×10⁻⁶ cm/s | 2.01 | > 100000 nM | O=C([C@H]1CCCCN1C(=O)COc1ccccc1)N1Cc2cc(F)c(N3CCOCC3)cc2C1
